The text below walks through data of patent US20230093099A1, “COMPOUNDS AND METHODS OF TREATING CANCERS” (CULLGEN (SHANGHAI), INC., priority 2019, published 2023).

Molecules are shown by their SMILES. Some results are limits rather than exact numbers.

This assay concerns RS4;11 cells. Put plainly: Cell viability assay (CellTiter-Glo) in RS4;11 cells. Format: cell-based. The conditions noted are these: Homo sapiens, 72 h; RS4;11 cells; cell viability, 3 days, CellTiter-Glo; read-out: IC50. In outline: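 Three-day compound treatment of RS4;11 ALL cells (5000/well, 3-fold dilution series of 8 or 12 points), with IC50 from a nonlinear least-squares fit to CellTiter-Glo viability data.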
For `Cc1cnc(Nc2ccc(N3CCN(CC(=O)NCCOCCOCCC(=O)N[C@H](C(=O)N4C[C@H](O)C[C@H]4C(=O)NCc4ccc(-c5scnc5C)cc4)C(C)(C)C)CC3)cc2)nc1Nc1cccc(S(=O)(=O)NC(C)(C)C)c1` [JA-219, (2S,4R)-1-((S)-14-(tert-butyl)-1-(4-(4-((4-((3-(N-(tert-butyl)sulfamoyl)phenyl)amino)-5-methylpyrimidin-2-yl)amino)phenyl)piperazin-1-yl)-2,12-dioxo-6,9-dioxa-3,13-diazapentadecan-15-oyl)-4-hydroxy-N-(4-(4-methylthiazol-5-yl)benzyl)pyrrolidine-2-carboxamide], the half-maximal inhibitory concentration (IC50) was > 10 µM. Take `O=C1CCC(N2C(=O)c3ccc(NCCOCCOCCC(=O)N4CCC(n5cc(-c6cnc7cccc(-c8cc(F)c(CN9CCOCC9)c(F)c8)c7n6)cn5)CC4)cc3C2=O)C(=O)N1` (stereo not drawn) [JA-183, 5-((2-(2-(3-(4-(4-(8-(3,5-Difluoro-4-(morpholinomethyl)phenyl)quinoxalin-2-yl)-1H-pyrazol-1-yl)piperidin-1-yl)-3-oxopropoxy)ethoxy)ethyl)amino)-2-(2,6-dioxopiperidin-3-yl)isoindoline-1,3-dione]: the half-maximal inhibitory concentration (IC50) is > 10 µM. `Cc1ncsc1-c1ccc(CNC(=O)[C@@H]2C[C@@H](O)CN2C(=O)[C@@H](NC(=O)CCC(=O)N2CCC(n3cc(-c4cnc5cccc(-c6cc(F)c(CN7CCOCC7)c(F)c6)c5n4)cn3)CC2)C(C)(C)C)cc1` [JA-060, (2S,4R)-1-[(2S)-2-[[4-[4-[4-[8-[3,5-Difluoro-4-(morpholinomethyl)phenyl]quinoxalin-2-yl]pyrazol-1-yl]-1-piperidyl]-4-oxo-butanoyl]amino]-3,3-dimethyl-butanoyl]-4-hydroxy-N-[[4-(4-methylthiazol-5-yl)phenyl]methyl]pyrrolidine-2-carboxamide]: the concentration for half-maximal inhibition (IC50) is > 10 µM. The result for `Cc1cnc(Nc2ccc(N3CCN(C(=O)CCCCCCCCCC(=O)N[C@H](C(=O)N4C[C@H](O)C[C@H]4C(=O)NCc4ccc(-c5scnc5C)cc4)C(C)(C)C)CC3)cc2)nc1Nc1cccc(S(=O)(=O)NC(C)(C)C)c1` [JA-029, (2S,4R)-1-((S)-2-(11-(4-(4-((4-((3-(N-(tert-Butyl)sulfamoyl)phenyl)amino)-5-methylpyrimidin-2-yl)amino)phenyl)piperazin-1-yl)-11-oxoundecanamido)-3,3-dimethylbutanoyl)-4-hydroxy-N-(4-(4-methylthiazol-5-yl)benzyl)pyrrolidine-2-carboxamide] reads > 10 µM; that for `Cc1cnc(Nc2ccc(N3CCN(C(=O)CCOCCOCCOCCOCCOCCNc4ccc5c(c4)C(=O)N(C4CCC(=O)NC4=O)C5=O)CC3)cc2)nc1Nc1cccc(S(=O)(=O)NC(C)(C)C)c1` (stereo not drawn) [JA-236, N-(tert-butyl)-3-((2-((4-(4-(1-((2-(2,6-dioxopiperidin-3-yl)-1,3-dioxoisoindolin-5-yl)amino)-3,6,9,12,15-pentaoxaoctadecan-18-oyl)piperazin-1-yl)phenyl)amino)-5-methylpyrimidin-4-yl)amino)benzenesulfonamide], 2.64 µM; that for `Cc1ncsc1-c1ccc(CNC(=O)[C@@H]2C[C@@H](O)CN2C(=O)[C@@H](NC(=O)CCCCCC(=O)N2CCC(n3cc(-c4cnc5cccc(-c6cc(F)c(CN7CCOCC7)c(F)c6)c5n4)cn3)CC2)C(C)(C)C)cc1` [JA-048, (2S,4R)-1-[(2S)-2-[[7-[4-[4-[8-[3,5-Difluoro-4-(morpholinomethyl)phenyl]quinoxalin-2-yl]pyrazol-1-yl]-1-piperidyl]-7-oxo-heptanoyl]amino]-3,3-dimethyl-butanoyl]-4-hydroxy-N-[[4-(4-methylthiazol-5-yl)phenyl]methyl]pyrrolidine-2-carboxamide], > 10 µM. With `Cc1cnc(Nc2ccc(N3CCN(CC(=O)NCCCCCCCCNc4cccc5c4C(=O)N(C4CCC(=O)NC4=O)C5=O)CC3)cc2)nc1Nc1cccc(S(=O)(=O)NC(C)(C)C)c1` (stereo not drawn) [JA-096, 2-(4-(4-((4-((3-(N-(tert-Butyl)sulfamoyl)phenyl)amino)-5-methylpyrimidin-2-yl)amino)phenyl)piperazin-1-yl)-N-(8-((2-(2,6-dioxopiperidin-3-yl)-1,3-dioxoisoindolin-4-yl)amino)octyl)acetamide] the figure was 0.159 µM. `Cc1cnc(Nc2ccc(N3CCN(C(=O)CCCCCCCC(=O)N[C@H](C(=O)N4C[C@H](O)C[C@H]4C(=O)NCc4ccc(-c5scnc5C)cc4)C(C)(C)C)CC3)cc2)nc1Nc1cccc(S(=O)(=O)NC(C)(C)C)c1` [JA-027, (2S,4R)-1-((S)-2-(9-(4-(4-((4-((3-(N-(tert-Butyl)sulfamoyl)phenyl)amino)-5-methylpyrimidin-2-yl)amino)phenyl)piperazin-1-yl)-9-oxononanamido)-3,3-dimethylbutanoyl)-4-hydroxy-N-(4-(4-methylthiazol-5-yl)benzyl)pyrrolidine-2-carboxamide]: the IC50 is > 10 µM. Consider `Cc1cnc(Nc2ccc(N3CCN(CC(=O)NCCOCCOCCOCCOCCC(=O)NC(C(=O)N4C[C@H](O)C[C@H]4C(=O)NCc4ccc(-c5scnc5C)cc4)C(C)(C)C)CC3)cc2)nc1Nc1cccc(S(=O)(=O)NC(C)(C)C)c1` (stereo in doubt) [JA-222, (2S,4R)-1-((S)-20-(tert-butyl)-1-(4-(4-((4-((3-(N-(tert-butyl)sulfamoyl)phenyl)amino)-5-methylpyrimidin-2-yl)amino)phenyl)piperazin-1-yl)-2,18-dioxo-6,9,12,15-tetraoxa-3,19-diazahenicosan-21-oyl)-4-hydroxy-N-(4-(4-methylthiazol-5-yl)benzyl)pyrrolidine-2-carboxamide], for which the IC50 is > 10 µM. Turning to `Cn1c(=O)n(C2CCC(=O)NC2=O)c2cccc(NCCCCC(=O)N3CCC(n4cc(-c5cnc6cccc(-c7cc(F)c(CN8CCOCC8)c(F)c7)c6n5)cn4)CC3)c21` (stereo not drawn) [JA-286, 3-(4-((5-(4-(4-(8-(3,5-Difluoro-4-(morpholinomethyl)phenyl)quinoxalin-2-yl)-1H-pyrazol-1-yl)piperidin-1-yl)-5-oxopentyl)amino)-3-methyl-2-oxo-2,3-dihydro-1H-benzo[d]imidazol-1-yl)piperidine-2,6-dione], the IC50 was > 0.5 µM.

On to `Cc1ncsc1-c1ccc(CNC(=O)[C@@H]2C[C@@H](O)CN2C(=O)[C@@H](NC(=O)COCCOCCOCCOCCOCC(=O)N2CCN(c3ccc(Nc4nc5cccc(-c6ccc(S(C)(=O)=O)cc6)n5n4)cc3)CC2)C(C)(C)C)cc1` [JA-083, (2S,4R)-1-((S)-2-(tert-Butyl)-20-(4-(4-((5-(4-(methylsulfonyl)phenyl)-[1,2,4]triazolo[1,5-a]pyridin-2-yl)amino)phenyl)piperazin-1-yl)-4,20-dioxo-6,9,12,15,18-pentaoxa-3-azaicosanoyl)-4-hydroxy-N-(4-(4-methylthiazol-5-yl)benzyl)pyrrolidine-2-carboxamide], for which the half-inhibitory concentration (IC50) is > 10 µM. Regarding `Cc1cnc(Nc2ccc(N3CCN(CC(=O)NCCOCCNc4ccc5c(c4)C(=O)N(C4CCC(=O)NC4=O)C5=O)CC3)cc2)nc1Nc1cccc(S(=O)(=O)NC(C)(C)C)c1` (stereo not drawn) [JA-237, 2-(4-(4-((4-((3-(N-(tert-butyl)sulfamoyl)phenyl)amino)-5-methylpyrimidin-2-yl)amino)phenyl)piperazin-1-yl)-N-(2-(2-((2-(2,6-dioxopiperidin-3-yl)-1,3-dioxoisoindolin-5-yl)amino)ethoxy)ethyl)acetamide], the IC50 was > 10 µM.
